In US7470719B2, “Metastable benzoxepne derivatives which can be used in the treatment of dyslipidaemia a therosclerosis and diabetes, pharmaceutical compositions comprising them and processes for the preparation thereof” (Merck Patent GmbH, priority 2002, dated 2008):
Where “and” joins values, the source holds several entries; their conditions need not be identical. Equal entries are not always repeated.

Columns and labels:
Type in all cases: physicochemical
[1] = Specific surface area (BET) of the crystalline forms; conditions: powder of the crystalline form; paired with the apparent density of the same line
Excerpt: (§1) The dissolution kinetics promote the xenobiotic bioavailability of this type of active principle. It is also known that the dissolution kinetics are accelerated by increasing the specific surface area. […] Table I below gives the respective values of the apparent density and the specific surface area (BET surface area) for the various crystalline forms.

[2] = Apparent density of the crystalline forms; conditions: for Apparent density: powder of the crystalline form, paired with the specific surface area of the same line
Excerpt: as §1

[3] = Comparative grinding studies (jet micronisation): specific surface area (BET) of batches; conditions: for BET: after grinding, feed pressure, grinding pressure and feed flow differ per batch (batches 1-11, see line of table)
Description: In addition, comparative grinding studies, in particular by jet micronisation, were performed so as to obtain powders of the stable and metastable forms having the same specific surface area.
Table II below presents a comparison of the specific surface areas of different batches of the compound of the formula I in which n represents 1 and R in position 7 represents methoxy, obtained by carrying out different grinding conditions.

| Specific surface area or BET [1] | Apparent density of metastable form compared with thermodynamically stable form ([2]; for the same specific surface area value) | Apparent density [2] | BET ([3]; feed 2.0 bar, grinding 1.0 bar, 4.5 kg/h) [m^2/g] | BET ([3]; feed 2.2 bar, grinding 1.2 bar, 5.0 kg/h) [m^2/g] | BET ([3]; feed 2.5 bar, grinding 1.5 bar, 1.5 kg/h) [m^2/g] | BET ([3]; feed 2.5 bar, grinding 1.5 bar, 2.4 kg/h) [m^2/g] | BET ([3]; feed 2.5 bar, grinding 1.5 bar, 6.5 kg/h) [m^2/g] | Specific surface area (BET) after grinding, metastable versus stable form ([3]; jet micronisation, similar operating conditions (feed pressure and grinding pressure)) | Compound | Suitability for grinding or micronisation ([3]; metastable versus stable form) |
| --- | --- | --- | --- | --- | --- | --- | --- | --- | --- | --- |
| 3.1 m^2/g and 2.8 m^2/g | greater apparent density | 0.30 | 6.2 | 7.2 | 10.2 | 9.1 | 9.2 | greater specific surface area (BET) | COc1ccc2c(c1)C(/C=C/C(C)=C/C(=O)O)=CC(C)(C)CO2 [metastable, 2E,4E-(methoxy-7-dimethyl-3-dihydro-2,3-benzoxepin-1-yl-5)-5-methyl-3-pentadien-2,4-oic Acid] | more suitable for grinding or micronisation |
| – | – | 0.18 and 0.29 and 0.16 | – | – | – | – | – | – | COc1ccc2c(c1)C(/C=C/C(C)=C/C(=O)O)=CC(C)(C)CO2 [stable, 2E,4E-(methoxy-7-dimethyl-3,3-dihydro-2,3-benzoxepin-1-yl-5)-5-methyl-3-pentadien-2,4-oic acid] | – |
